In US4436751A, “Nitrobenzyl monates antibacterial compounds” (Beecham Group Limited, priority 1980, dated 1984):
Values after ≈ are worked out from the molar mass of the structure shown. Like-named read-outs stand apart in the source and are kept apart here.

Legend:
Format in all cases: cell-based
[1] = tested on: M. suipneumoniae NCTC 10110; assay: Anti-mycoplasmal MIC in vitro, Friis broth agarose (Table 1); conditions: Mesomycoplasma hyopneumoniae, NCTC10110, 144 h
M. suipneumoniae HR(2) = assay: as above; conditions: Mesomycoplasma hyopneumoniae, 144 h
M. hyorhinis ATCC 25021 = assay: as above; conditions: Mesomycoplasma hyorhinis, ATCC25021, 144 h
M. suipneumoniae OCD 1 = assay: as above; conditions: Mesomycoplasma hyopneumoniae, OCD1, 144 h
M. suipneumoniae TAM 6N = assay: as above; conditions: Mesomycoplasma hyopneumoniae, TAM6N, 144 h
M. bovis RCTC 10131 = assay: microbe, parasite or virus in culture; conditions: RCTC10131, 144 h
M. dispar RCTC 10125 = assay: Anti-mycoplasmal MIC in vitro, Friis broth agarose (Table 1); conditions: 144 h
M. suipneumoniae LABER = assay: as above; conditions: Mesomycoplasma hyopneumoniae, 144 h
[2] = tested on: M. suipneumoniae J2206/183b; assay: as above; conditions: Mesomycoplasma hyopneumoniae, J2206/183B, 144 h
M. suipneumoniae Str. 11 = assay: as above; conditions: Mesomycoplasma hyopneumoniae, STR.11, 144 h
[3] = tested on: M. suipneumoniae ATCC 25095; assay: as above; conditions: Mesomycoplasma hyopneumoniae, ATCC25095, 144 h
[4] = tested on: Pasteurella multocida 1633; assay: Human bacteria MIC, nutrient agar with chocolated horse blood (Table 3)
Protocol: (§1) The values were determined by serial dilutions in nutrient agar with 5% chocolated horse blood after incubations for 18 hours at 37° C.

[5] = tested on: Haemophilus influenzae Q1; assay: as above
Protocol: as §1

K. aerogenes A = assay: as above; conditions: Klebsiella aerogenes
Protocol: as §1

Staph. aureus W2827 = assay: as above; conditions: Staphylococcus aureus
Protocol: as §1

[6] = tested on: Ps. aeruginosa NCTC 10662; assay: as above; conditions: Pseudomonas aeruginosa
Protocol: as §1

[7] = tested on: Strep. pyogenes R80/421-A; assay: as above; conditions: Streptococcus pyogenes
Protocol: as §1

[8] = tested on: Corynebacterium xerosis 9755; assay: as above
Protocol: as §1

Sarcina lutea 8340 = assay: as above
Protocol: as §1

P. mirabilis 889 = assay: as above
Protocol: as §1

Staph. aureus Russell = assay: as above; conditions: Staphylococcus aureus
Protocol: as §1

E. Coli NCTC 10418 = assay: as above; conditions: Escherichia coli
Protocol: as §1

Staph. aureus Oxford = assay: as above; conditions: Staphylococcus aureus
Protocol: as §1

Strep. faecalis 1 = assay: as above
Protocol: as §1

Bacillus subtilis 6633 = assay: as above
Protocol: as §1

[9] = tested on: Strep. suis (group D) SPS11; assay: Veterinary bacteria MIC, Diagnostic Sensitivity Test Agar (Table 2); conditions: Streptococcus suis
Protocol: The values were determined using a two fold serial dilutions in Diagnostic Sensitivity Test Agar with an inoculum of 10^4 organisms and incubation for 18 hours at 37° C.

M. suipneumoniae JF 435 = assay: Anti-mycoplasmal MIC in vitro, Friis broth agarose (Table 1); conditions: Mesomycoplasma hyopneumoniae, JF435, 144 h
[10] = tested on: M. suipneumoniae PW/C/210; assay: as above; conditions: Mesomycoplasma hyopneumoniae, 144 h

For `C/C(=C\C(=O)OCc1cc([N+](=O)[O-])cc([N+](=O)[O-])c1C)CC1OCC(CC2OC2C(C)C(C)O)C(O)C1O` (centres unmarked) [Example 7, 3,5-dinitro-2-methylbenzyl monate A], the MIC [1] was 0.25 µg/mL (≈ 0.464 µM), the MIC (M. suipneumoniae HR(2)) was 0.25 µg/mL (≈ 0.464 µM) and the MIC (M. hyorhinis ATCC 25021) was 0.1 µg/mL (≈ 0.186 µM). It also gave an MIC (M. suipneumoniae OCD 1) of 0.25 µg/mL (≈ 0.464 µM), an MIC (M. suipneumoniae TAM 6N) of 0.25 µg/mL (≈ 0.464 µM) and an MIC (M. bovis RCTC 10131) of no more than 0.1 µg/mL. For the same compound, the MIC (M. dispar RCTC 10125) was 0.05 µg/mL (≈ 0.0928 µM), the MIC (M. suipneumoniae LABER) was 0.1 µg/mL (≈ 0.186 µM) and the MIC [2] was 0.25 µg/mL (≈ 0.464 µM). It also gave an MIC (M. suipneumoniae Str. 11) of 0.1 µg/mL (≈ 0.186 µM), an MIC [3] of 0.25 µg/mL (≈ 0.464 µM) and an MIC ([4]; Pasteurella multocida, 1633, 18 h) of 5 µg/mL (≈ 9.28 µM). For the same compound, the MIC ([5]; Haemophilus influenzae, Q1, 18 h) was 1 µg/mL (≈ 1.86 µM), the MIC (K. aerogenes A; 18 h) was greater than 100 µg/mL and the MIC (Staph. aureus W2827; W2827, 18 h) was 2.5 µg/mL (≈ 4.64 µM). It also gave an MIC ([6]; NCTC10662, 18 h) greater than 100 µg/mL, an MIC ([7]; R80/421A, 18 h) of 0.25 µg/mL (≈ 0.464 µM) and an MIC ([8]; Corynebacterium xerosis, 9755, 18 h) greater than 100 µg/mL. The MIC (Sarcina lutea 8340; Micrococcus luteus, 8340, 18 h) was greater than 100 µg/mL, the MIC (P. mirabilis 889; Proteus mirabilis, 889, 18 h) was greater than 100 µg/mL and the MIC (Staph. aureus Russell; 18 h) was 1 µg/mL (≈ 1.86 µM). It also gave an MIC (E. Coli NCTC 10418; NCTC10418, 18 h) greater than 100 µg/mL, an MIC (Staph. aureus Oxford; 18 h) of 1 µg/mL (≈ 1.86 µM) and an MIC (Strep. faecalis 1; Enterococcus faecalis, 1, 18 h) greater than 100 µg/mL. For the same compound, the MIC (Bacillus subtilis 6633; Bacillus subtilis, 6633, 18 h) was 1 µg/mL (≈ 1.86 µM), the MIC ([9]; 18 h) was 10 µg/mL (≈ 18.6 µM) and the MIC (M. suipneumoniae JF 435) was 0.25 µg/mL (≈ 0.464 µM). The MIC [10] was 0.1 µg/mL (≈ 0.186 µM).
Work on `C/C(=C\C(=O)OC(C)c1ccc([N+](=O)[O-])cc1)CC1OCC(CC2OC2C(C)C(C)O)C(O)C1O` (centres unmarked) [Example 4, 1-(p-nitrophenyl)ethyl monate A] yielded an MIC ([1]; M. suipneumoniae NCTC 10110, in vitro, 6 days 37° C., read-out: MIC) of 2.5 µg/mL (≈ 5.07 µM), an MIC (M. suipneumoniae HR(2); M. suipneumoniae HR(2), in vitro, 6 days 37° C., read-out: MIC) of 2.5 µg/mL (≈ 5.07 µM) and an MIC (M. hyorhinis ATCC 25021) of 0.5 µg/mL (≈ 1.01 µM). For the same compound, the MIC (M. suipneumoniae OCD 1) was 1 µg/mL (≈ 2.03 µM), the MIC (M. suipneumoniae TAM 6N; M. suipneumoniae TAM 6N, in vitro, 6 days 37° C., read-out: MIC) was 2.5 µg/mL (≈ 5.07 µM) and the MIC (M. bovis RCTC 10131) was 0.025 µg/mL (≈ 0.0507 µM). For the same compound, the MIC (M. dispar RCTC 10125; M. dispar RCTC 10125, in vitro, 6 days 37° C., read-out: MIC) was 0.1 µg/mL (≈ 0.203 µM), the MIC (M. suipneumoniae LABER) was 1 µg/mL (≈ 2.03 µM) and the MIC [2] was 1 µg/mL (≈ 2.03 µM). The MIC (M. suipneumoniae Str. 11) was 1 µg/mL (≈ 2.03 µM), the MIC [3] was 1 µg/mL (≈ 2.03 µM) and the MIC ([4]; Pasteurella multocida 1633, nutrient agar 5% chocolated horse blood, 18 hours 37° C., read-out: MIC) was 10 µg/mL (≈ 20.3 µM). It also gave an MIC ([5]; Haemophilus influenzae Q1, nutrient agar 5% chocolated horse blood, 18 hours 37° C., read-out: MIC) of 1 µg/mL (≈ 2.03 µM), an MIC (K. aerogenes A; K. aerogenes A, nutrient agar 5% chocolated horse blood, 18 hours 37° C., read-out: MIC) greater than 100 µg/mL and an MIC (Staph. aureus W2827; Staph. aureus W2827, nutrient agar 5% chocolated horse blood, 18 hours 37° C., read-out: MIC) of 2.5 µg/mL (≈ 5.07 µM). The MIC ([6]; NCTC10662, Ps. aeruginosa NCTC 10662, nutrient agar 5% chocolated horse blood, 18 hours 37° C., read-out: MIC) was greater than 100 µg/mL, the MIC ([7]; Strep. pyogenes R80/421-A, nutrient agar 5% chocolated horse blood, 18 hours 37° C., read-out: MIC) was 1 µg/mL (≈ 2.03 µM) and the MIC ([8]; Corynebacterium xerosis 9755, nutrient agar 5% chocolated horse blood, 18 hours 37° C., read-out: MIC) was greater than 100 µg/mL. The MIC (Sarcina lutea 8340; Micrococcus luteus, Sarcina lutea 8340, nutrient agar 5% chocolated horse blood, 18 hours 37° C., read-out: MIC) was greater than 100 µg/mL, the MIC (P. mirabilis 889; Proteus mirabilis, P. mirabilis 889, nutrient agar 5% chocolated horse blood, 18 hours 37° C., read-out: MIC) was greater than 100 µg/mL and the MIC (Staph. aureus Russell; Staph. aureus Russell, nutrient agar 5% chocolated horse blood, 18 hours 37° C., read-out: MIC) was 2.5 µg/mL (≈ 5.07 µM). For the same compound, the MIC (E. Coli NCTC 10418; NCTC10418, E. coli NCTC 10418, nutrient agar 5% chocolated horse blood, 18 hours 37° C., read-out: MIC) was greater than 100 µg/mL, the MIC (Staph. aureus Oxford; Staph. aureus Oxford, nutrient agar 5% chocolated horse blood, 18 hours 37° C., read-out: MIC) was 2.5 µg/mL (≈ 5.07 µM) and the MIC (Strep. faecalis 1; Enterococcus faecalis, Strep. faecalis 1, nutrient agar 5% chocolated horse blood, 18 hours 37° C., read-out: MIC) was greater than 100 µg/mL. It also gave an MIC (Bacillus subtilis 6633; Bacillus subtilis 6633, nutrient agar 5% chocolated horse blood, 18 hours 37° C., read-out: MIC) of 1 µg/mL (≈ 2.03 µM), an MIC ([9]; Strep. suis (group D) SPS11, DST Agar, 10^4 organisms, 18 hours 37° C., read-out: MIC) of 20 µg/mL (≈ 40.5 µM) and an MIC (M. suipneumoniae JF 435; M. suipneumoniae JF 435, in vitro, 6 days 37° C., read-out: MIC) of 2.5 µg/mL (≈ 5.07 µM). The MIC [10] was 1 µg/mL (≈ 2.03 µM).
